Experimental data: ChEMBL document CHEMBL1201862, “PubChem BioAssay data set” (2004)
Calls of active or inactive are those of the source.

Experiments:
[1] = target: T1, E3 ubiquitin-protein ligase XIAP (Homo sapiens, UniProt P98170); assay: small molecules displacing peptide from XIAP – biochemical, IAP family, fluorescence polarization (AID 1018); assay type: functional
[2] = target: T1, E3 ubiquitin-protein ligase XIAP; assay: Counter Screen using XIAP-Bir3 for Chemical Antagonists of Bir1/2 domains of IAP-family anti-apoptotic proteins. [Related pubchem assays (depositor defined):AID1018, AID1449, AID1514, AID1638, AID1749, AID1750, AID488957, AID488963]
[3] = target: T2, Serine/threonine-protein phosphatase (Candida dubliniensis (strain CD36 / CBS 7987 / NCPF 3949 / NRRLY-17841) (Yeast), UniProt B9W6M3); assay: blockers of CaCl2-induced CDRE-lacZ signaling – S. cerevisiae, luminescence, secondary, dose response (AID 2388); assay type: functional, cell-based;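 also: yeast reporter cells carrying a calcineurin-responsive lacZ construct stimulated with calcium chloride; luminescent beta-galactosidase reporter signal in whole cells rather than isolated phosphatase activity; potency for inhibition where a drop in reporter signal means calcineurin blockade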
T2 sequence (B9W6M3 whole entry): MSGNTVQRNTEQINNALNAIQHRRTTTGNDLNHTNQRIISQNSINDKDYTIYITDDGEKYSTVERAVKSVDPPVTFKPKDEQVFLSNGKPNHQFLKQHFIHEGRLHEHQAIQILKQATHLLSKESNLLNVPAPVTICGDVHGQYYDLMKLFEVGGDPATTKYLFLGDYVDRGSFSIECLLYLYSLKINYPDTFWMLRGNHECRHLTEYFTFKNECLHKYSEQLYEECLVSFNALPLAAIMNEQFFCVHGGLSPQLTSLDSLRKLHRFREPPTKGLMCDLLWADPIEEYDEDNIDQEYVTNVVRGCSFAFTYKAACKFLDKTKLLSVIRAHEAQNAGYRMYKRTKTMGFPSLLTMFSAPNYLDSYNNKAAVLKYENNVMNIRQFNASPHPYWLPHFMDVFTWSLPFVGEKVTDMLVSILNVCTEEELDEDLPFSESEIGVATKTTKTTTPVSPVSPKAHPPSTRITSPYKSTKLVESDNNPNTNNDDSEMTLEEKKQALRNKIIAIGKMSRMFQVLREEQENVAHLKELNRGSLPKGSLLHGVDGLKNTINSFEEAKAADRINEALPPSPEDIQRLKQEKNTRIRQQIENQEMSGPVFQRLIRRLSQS

[4] = fluconazole-exposed Candida albicans growth modulators – fluorescence, retest, confirmation (AID 2467); assay type: functional, cell-based
[5] = Luminescence Cell-Based Dose Confirmation HTS to Identify Inhibitors of Polyadenylation.; assay type: functional
[6] = target: ATP-dependent molecular chaperone HSP82 (Candida albicans (strain WO-1) (Yeast), UniProt C4YTQ8); assay: steroid-induced GRE reporter decrease in yeast – S. cerevisiae, luminescence, Hsp90 inhibitor project, dose response (AID 2400); assay type: functional, cell-based;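 also: beta-galactosidase luminescence from glucocorticoid response element reporter as proxy for Hsp90 function; inhibitor potency where signal loss means Hsp90 inhibition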
Sequence of ATP-dependent molecular chaperone HSP82 (C4YTQ8 whole entry): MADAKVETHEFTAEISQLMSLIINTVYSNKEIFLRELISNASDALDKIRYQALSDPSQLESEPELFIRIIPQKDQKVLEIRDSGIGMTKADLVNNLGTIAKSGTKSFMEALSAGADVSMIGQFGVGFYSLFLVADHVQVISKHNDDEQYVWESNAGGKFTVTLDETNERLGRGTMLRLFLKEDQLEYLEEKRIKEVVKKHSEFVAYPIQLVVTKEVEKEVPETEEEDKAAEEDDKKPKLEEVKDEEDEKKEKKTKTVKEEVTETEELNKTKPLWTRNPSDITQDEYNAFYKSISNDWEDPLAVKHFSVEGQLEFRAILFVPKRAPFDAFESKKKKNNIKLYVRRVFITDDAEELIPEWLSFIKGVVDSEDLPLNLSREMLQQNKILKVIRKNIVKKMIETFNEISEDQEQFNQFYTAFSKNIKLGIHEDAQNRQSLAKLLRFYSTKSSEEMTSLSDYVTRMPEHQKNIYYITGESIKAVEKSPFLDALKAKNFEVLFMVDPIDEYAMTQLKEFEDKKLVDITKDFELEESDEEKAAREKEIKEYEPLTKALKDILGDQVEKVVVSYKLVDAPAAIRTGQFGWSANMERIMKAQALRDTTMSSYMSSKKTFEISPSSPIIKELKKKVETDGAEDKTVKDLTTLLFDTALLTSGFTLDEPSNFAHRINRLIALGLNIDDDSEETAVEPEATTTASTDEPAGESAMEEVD

[7] = NIH-3T3 fibroblast cytotoxicity, dose response, cytotoxicity control, cell-based, fluorescence, Alamar Blue, secondary assay (AID 2327); assay type: functional;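 also: NIH-3T3 mouse fibroblasts cultured with fluconazole at 8 µg/mL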
[8] = target: T3, Sphingosine 1-phosphate receptor 2 (Homo sapiens, UniProt O95136); assay: Dose Response Cell-Based Assay for Agonists of the Sphingosine 1-Phosphate Receptor 2 (S1P2): Purchased Analogues. [Related pubchem assays: 1192, 373, 439 ]; assay type: functional
T3 sequence (O95136 whole entry): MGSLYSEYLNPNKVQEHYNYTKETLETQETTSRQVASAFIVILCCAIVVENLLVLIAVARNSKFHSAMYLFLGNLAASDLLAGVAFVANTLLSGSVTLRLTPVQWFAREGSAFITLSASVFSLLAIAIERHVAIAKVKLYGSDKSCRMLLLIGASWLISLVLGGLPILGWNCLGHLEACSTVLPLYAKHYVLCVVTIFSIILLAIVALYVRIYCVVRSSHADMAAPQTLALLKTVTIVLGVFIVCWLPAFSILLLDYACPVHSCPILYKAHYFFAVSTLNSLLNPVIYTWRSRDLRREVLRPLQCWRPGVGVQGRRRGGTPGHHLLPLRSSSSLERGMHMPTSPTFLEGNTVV

[9] = target: Sphingosine 1-phosphate receptor 3 (Homo sapiens, UniProt Q99500); assay: Dose Response Cell-Based Assay for Agonists of the Sphingosine 1-Phosphate Receptor 3 (S1P3): Purchased Analogues. [Related pubchem assays: 373, 439 ]; assay type: functional
[10] = target: Sphingosine 1-phosphate receptor 1 (Homo sapiens, UniProt P21453); assay: Dose Response Cell-Based Assay for Agonists of the Sphingosine 1-Phosphate Receptor 1 (S1P1): Purchased Analogues. [Related pubchem assays: 1192, 373, 439 ]; assay type: functional
Sequence of Sphingosine 1-phosphate receptor 1 (P21453 whole entry): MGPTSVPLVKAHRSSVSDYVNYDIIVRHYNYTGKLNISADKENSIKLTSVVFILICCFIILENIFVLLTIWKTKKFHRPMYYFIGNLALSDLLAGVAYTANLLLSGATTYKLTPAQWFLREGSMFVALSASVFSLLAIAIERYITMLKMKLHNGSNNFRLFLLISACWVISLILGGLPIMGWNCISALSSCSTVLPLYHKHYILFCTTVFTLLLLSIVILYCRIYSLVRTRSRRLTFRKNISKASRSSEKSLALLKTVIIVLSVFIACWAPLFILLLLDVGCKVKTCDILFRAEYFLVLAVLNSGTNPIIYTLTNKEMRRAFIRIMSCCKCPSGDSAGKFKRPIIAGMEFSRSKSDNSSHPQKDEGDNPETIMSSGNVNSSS

NADPH oxidase 1 = NADPH oxidase 1 (Homo sapiens, UniProt Q9Y5S8); assay type: functional, cell-based;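 also: Cell-based assay with luminescence read-out, IC50 derived from inhibitor dose-response curves; intracellular ROS from endogenous NOX1 in intact HT29 colon cancer cells; potency of inhibitors that lower the ROS luminescence signal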
Sequence of NADPH oxidase 1 (Q9Y5S8 whole entry): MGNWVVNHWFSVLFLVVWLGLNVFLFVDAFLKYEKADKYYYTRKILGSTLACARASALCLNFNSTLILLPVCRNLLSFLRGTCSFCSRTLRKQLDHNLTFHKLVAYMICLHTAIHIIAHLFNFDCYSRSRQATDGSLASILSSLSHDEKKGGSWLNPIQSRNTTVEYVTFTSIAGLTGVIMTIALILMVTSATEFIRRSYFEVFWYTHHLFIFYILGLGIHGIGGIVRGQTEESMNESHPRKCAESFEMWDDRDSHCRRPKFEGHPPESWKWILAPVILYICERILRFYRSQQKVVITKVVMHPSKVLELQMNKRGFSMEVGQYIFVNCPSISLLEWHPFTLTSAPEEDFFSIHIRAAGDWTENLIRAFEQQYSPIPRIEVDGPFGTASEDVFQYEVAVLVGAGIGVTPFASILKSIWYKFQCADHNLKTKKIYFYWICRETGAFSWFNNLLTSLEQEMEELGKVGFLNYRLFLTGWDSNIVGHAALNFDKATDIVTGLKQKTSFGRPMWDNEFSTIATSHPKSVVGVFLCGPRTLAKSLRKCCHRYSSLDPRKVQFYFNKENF

[11] = target: T3, Sphingosine 1-phosphate receptor 2; assay: Dose Response Cell Based Assay for Agonists of the S1P2 Receptor of Purchased Analogues. [Related pubchem assays: 729, 843, 854, 736 ]; assay type: functional
Estrogen receptor beta = Estrogen receptor beta (Homo sapiens, UniProt Q92731);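 also: recombinant ER-beta bound to coactivator SRC1 peptide in presence of estradiol agonist; inhibitors block coactivator peptide binding and lower the FRET signal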
Sequence of Estrogen receptor beta (Q92731 whole entry): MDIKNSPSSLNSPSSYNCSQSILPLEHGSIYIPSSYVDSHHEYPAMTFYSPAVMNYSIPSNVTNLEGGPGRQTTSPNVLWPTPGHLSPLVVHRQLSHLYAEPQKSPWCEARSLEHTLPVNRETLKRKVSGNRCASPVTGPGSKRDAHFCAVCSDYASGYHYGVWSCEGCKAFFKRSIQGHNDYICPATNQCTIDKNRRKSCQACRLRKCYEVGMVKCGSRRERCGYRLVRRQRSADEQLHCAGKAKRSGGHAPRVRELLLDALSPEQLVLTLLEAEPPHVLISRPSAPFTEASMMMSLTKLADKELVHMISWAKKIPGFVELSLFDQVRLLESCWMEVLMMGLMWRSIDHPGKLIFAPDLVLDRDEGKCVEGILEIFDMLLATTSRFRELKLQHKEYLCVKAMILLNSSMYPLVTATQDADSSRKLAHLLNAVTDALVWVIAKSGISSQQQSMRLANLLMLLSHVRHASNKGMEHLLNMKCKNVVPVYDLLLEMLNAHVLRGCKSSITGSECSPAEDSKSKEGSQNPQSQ

Estrogen receptor [12] = target: T4, Estrogen receptor (Homo sapiens, UniProt P03372);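 also: potency for inhibiting coactivator peptide recruitment to the receptor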
T4 sequence (P03372 whole entry): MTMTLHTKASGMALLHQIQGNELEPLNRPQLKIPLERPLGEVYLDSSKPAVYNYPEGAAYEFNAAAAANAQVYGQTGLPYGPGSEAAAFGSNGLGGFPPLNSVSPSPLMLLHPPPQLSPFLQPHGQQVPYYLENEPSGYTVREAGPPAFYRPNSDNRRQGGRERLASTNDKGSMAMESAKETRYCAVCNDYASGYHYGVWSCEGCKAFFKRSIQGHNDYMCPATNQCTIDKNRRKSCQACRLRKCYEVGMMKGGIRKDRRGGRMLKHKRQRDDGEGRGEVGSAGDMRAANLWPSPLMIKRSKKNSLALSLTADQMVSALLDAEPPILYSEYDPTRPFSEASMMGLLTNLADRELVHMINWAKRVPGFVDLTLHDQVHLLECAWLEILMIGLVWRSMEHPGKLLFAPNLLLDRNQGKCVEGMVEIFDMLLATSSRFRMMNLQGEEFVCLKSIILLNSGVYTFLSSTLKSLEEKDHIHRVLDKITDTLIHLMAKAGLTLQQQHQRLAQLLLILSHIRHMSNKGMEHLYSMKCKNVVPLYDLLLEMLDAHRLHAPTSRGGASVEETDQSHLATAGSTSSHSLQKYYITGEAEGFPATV

[13] = Luminescence Cell-Based Dose Retest to Confirm Inhibitors of Cancer Stem Cells. [Related pubchem assays (depositor defined):AID2717, AID2721]; assay type: functional; conditions: Homo sapiens
[14] = HEK-293T viability loss after treatment – luminescence, T-cell screen hits, cytotoxicity control for TCR NF-kB inhibitor project, dose response (AID 489026); assay type: functional, cell-based;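 also: cells exposed to compound about 14 hours before the viability readout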
[15] = Luminescence-based dose response cell-based high throughput screening assay for cytotoxic compounds using the IEC-6 intestinal epithelial cell line. [Related pubchem assays: 1858 (Summary AID.), 1825 (Counterscreen.), 1907 (Confirmation screen.)]; assay type: functional
[16] = target: Inward rectifier potassium channel 2 (Mus musculus, UniProt P35561); assay: Manual electrophysiological patch clamp assay for SAR compounds that inhibit/block inward-rectifying potassium ion channel Kir2.1. [Related pubchem assays: 1843 (Summary assay for Kir2.1 inhibitor assays.), 1672 (Primary HTS of 305616 compounds where 2592 were identified as active.)]; assay type: functional
Sequence of Inward rectifier potassium channel 2 (P35561 whole entry): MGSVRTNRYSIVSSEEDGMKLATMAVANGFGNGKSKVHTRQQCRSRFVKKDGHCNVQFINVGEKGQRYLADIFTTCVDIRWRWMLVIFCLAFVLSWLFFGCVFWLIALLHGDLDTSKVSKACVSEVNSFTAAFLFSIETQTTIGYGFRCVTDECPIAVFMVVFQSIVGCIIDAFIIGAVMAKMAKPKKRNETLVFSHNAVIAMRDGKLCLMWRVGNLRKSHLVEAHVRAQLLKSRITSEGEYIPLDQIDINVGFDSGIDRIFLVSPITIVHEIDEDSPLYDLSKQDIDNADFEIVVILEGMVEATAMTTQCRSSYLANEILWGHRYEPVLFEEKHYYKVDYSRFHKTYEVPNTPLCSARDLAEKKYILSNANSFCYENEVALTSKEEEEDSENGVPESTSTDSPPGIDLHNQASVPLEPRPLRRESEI

[17] = target: Potassium voltage-gated channel subfamily KQT member 2 (Rattus norvegicus, UniProt O88943, W236L); assay: potentiation of rat KCNQ2 current – cell-based, automated electrophysiology, mechanism study for KCNQ2 potentiator project, dose response (AID 2603); assay type: functional
Sequence of Potassium voltage-gated channel subfamily KQT member 2 (O88943 whole entry W236L, the tested form may be a part): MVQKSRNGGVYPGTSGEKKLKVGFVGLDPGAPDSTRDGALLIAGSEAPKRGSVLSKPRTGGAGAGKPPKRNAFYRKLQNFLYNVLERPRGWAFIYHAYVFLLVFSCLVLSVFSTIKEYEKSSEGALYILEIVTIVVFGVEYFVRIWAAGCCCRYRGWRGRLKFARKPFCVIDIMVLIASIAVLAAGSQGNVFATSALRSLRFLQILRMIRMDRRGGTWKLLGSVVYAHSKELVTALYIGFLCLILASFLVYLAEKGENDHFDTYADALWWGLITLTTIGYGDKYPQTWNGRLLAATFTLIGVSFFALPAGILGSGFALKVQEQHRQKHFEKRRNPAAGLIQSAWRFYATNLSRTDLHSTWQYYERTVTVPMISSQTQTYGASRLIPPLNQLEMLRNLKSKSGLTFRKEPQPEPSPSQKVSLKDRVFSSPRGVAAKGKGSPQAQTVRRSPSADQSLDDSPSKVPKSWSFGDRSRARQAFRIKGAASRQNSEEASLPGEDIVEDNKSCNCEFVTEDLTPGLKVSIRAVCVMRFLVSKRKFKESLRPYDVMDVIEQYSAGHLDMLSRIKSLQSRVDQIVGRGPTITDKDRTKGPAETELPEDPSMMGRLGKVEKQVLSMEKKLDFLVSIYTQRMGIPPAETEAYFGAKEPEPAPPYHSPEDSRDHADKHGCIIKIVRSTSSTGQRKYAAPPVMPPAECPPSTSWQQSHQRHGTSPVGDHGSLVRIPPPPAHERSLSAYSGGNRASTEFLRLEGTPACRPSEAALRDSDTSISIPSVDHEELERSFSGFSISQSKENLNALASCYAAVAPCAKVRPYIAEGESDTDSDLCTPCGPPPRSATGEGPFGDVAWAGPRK

Estrogen receptor [18] = target: T4, Estrogen receptor; assay: ERα coactivator recruitment enhancers – biochemical, TR-FRET, ERα LBD, dose response (AID 737)
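For AC50 in this document: cells exposed to compound for roughly 70 hours or longer before luminescence read.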

T1 sequence (P98170 whole entry): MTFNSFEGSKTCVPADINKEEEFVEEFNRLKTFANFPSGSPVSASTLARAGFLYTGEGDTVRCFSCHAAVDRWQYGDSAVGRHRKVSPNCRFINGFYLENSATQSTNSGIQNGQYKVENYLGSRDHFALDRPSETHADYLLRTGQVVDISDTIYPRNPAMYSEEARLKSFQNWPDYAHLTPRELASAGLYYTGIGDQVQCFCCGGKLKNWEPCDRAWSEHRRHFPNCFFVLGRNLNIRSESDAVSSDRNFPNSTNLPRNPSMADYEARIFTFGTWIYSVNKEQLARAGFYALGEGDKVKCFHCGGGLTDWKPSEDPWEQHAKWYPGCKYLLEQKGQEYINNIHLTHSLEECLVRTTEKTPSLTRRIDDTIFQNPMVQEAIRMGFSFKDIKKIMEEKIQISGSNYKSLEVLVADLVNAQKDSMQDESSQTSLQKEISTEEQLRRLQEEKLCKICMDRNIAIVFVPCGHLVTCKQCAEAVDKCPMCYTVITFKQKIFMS

Q: For `Cc1ccc(NC(=O)CNC2CCS(=O)(=O)C2)cc1C` (stereo not given), which IC50 [1] is on record?
A: > 100 µM (not active)

Q: What about the IC50 [2] of the same molecule?
A: > 100 µM (inactive)

Q: What does the source list for `Cc1ccc(NC(=O)c2sc3nc(N)c(C#N)cc3c2N)cc1`?
A: EC50 [3]: > 180 µM (inactive); EC50 [4]: 1.2 µM (active); EC50 [5]: 15.2 µM (active); EC50 [6]: > 150 µM (inactive); EC50 [7]: > 150 µM (inactive)

Q: Which EC50 [8] does the source give for `Cc1cc(C(=O)N(C)C2CCCCC2)no1` here?
A: > 10 µM (not active)

Q: What about the EC50 [9] of the same molecule?
A: > 50 µM (not active)

Q: What about the EC50 [10] of the same molecule?
A: > 50 µM (not active)

Q: Which IC50 (NADPH oxidase 1) does the source give for `COc1ccc(NC(=O)Nc2ccc3c(c2)CCN3S(=O)(=O)c2ccccc2)cc1` here?
A: > 17 µM (not active)

Q: For `Cc1nc(C)c(C(=O)OCC(=O)c2cc(C)n(Cc3ccccc3)c2C)s1`, which EC50 [11] is on record?
A: > 30 µM (not active)

Q: What does the source list for `O=C(NCc1ccco1)c1cc2cc3ccc(Cl)cc3nc2o1`?
A: IC50 (Estrogen receptor beta): > 50 µM (not active); IC50 (Estrogen receptor [12]): 17.7 µM (active)

Q: With `COc1ccc(NS(=O)(=O)c2cc(-c3cnc(C4CC4)o3)ccc2C)cc1` as the molecule, how does the AC50 [13] read?
A: 0.405 µM (active)

Q: And the IC50 [14]?
A: 70.5 µM (inactive)

Q: And the IC50 [15]?
A: 2.08 µM (active)

Q: Which IC50 [16] does the source give for `COc1ccc(CNCc2ccc(Cl)cc2)cc1` here?
A: 0.711 µM (active)

Q: With `CCOc1ccccc1NC(=O)NC(C)c1ccc2c(c1)OCO2` (stereo not given) as the molecule, how does the EC50 [17] read?
A: 1.51 µM (active)

Q: For `COc1cccc(C2CC(c3ccc(F)cc3)Nc3nc(N)nn32)c1` (stereo not given), which EC50 (Estrogen receptor [18]) is on record?
A: 6.71 µM (not active)
